The values that follow come from ChEMBL document CHEMBL3272144, “Application of the Free-Wilson technique to structurally related series of homologues. Quantitative structure-activity relationship studies of narcotic analgetics” (1977).

Each structure is given as a SMILES string.

This experiment is filed under the species Mus musculus. Description: Analgesic activity in mouse by hot-plate method. In kind it is functional. Background: In hot-plate and tail-flick tests a longer latency is read as antinociception.
Consider `CC[C@@H]1C2Cc3ccccc3[C@@]1(CC)CCN2C` (mixture of isomers), for which the “log(1/C)” value was found to be 1.8. The value for `C[C@@H]1C2Cc3ccc(O)cc3[C@@]1(c1ccccc1)CCN2C` (stereo in doubt; 88) was 1.99. With `C[C@H]1C2Cc3ccccc3[C@@]1(C)CCN2CCC(=O)c1ccccc1` (mixture of isomers), the “log(1/C)” value worked out at 1.93.

For the compound `C[C@]1(O)C2Cc3ccc(O)cc3[C@@]1(C)CCN2CCc1ccccc1` (mixture of isomers), the “log(1/C)” value is reported as 2.05. The value for `CC[C@@]12CCN(C)C(Cc3ccc(O)cc31)[C@@H]2C` (mixture of isomers) was 2.06. The value for `CN1CC[C@H]2CC1Cc1ccc(O)cc12` (stereo in doubt; 96) was 1.22; that for `CC[C@@H]1C2Cc3ccc(O)cc3[C@@]1(CC)CCN2C` (stereo in doubt; 6) was 3.51; that for `C[C@H]1C2Cc3ccc(O)cc3[C@@]1(C)CCN2CCc1cccs1` (mixture of isomers) was 4.04. `CC(=O)O[C@@]12CCN(C)C(Cc3ccccc31)C2` (mixture of isomers): the “log(1/C)” value is 1.64. Take `CC[C@@]12CCN(C)C(Cc3ccc(OC(C)=O)cc31)[C@]2(C)OC(C)=O` (mixture of isomers): the “log(1/C)” value turned out to be 2.82. With `C[C@@]12CCN(CCc3ccccc3)C(Cc3ccccc31)C2` (mixture of isomers) the figure was 1.26; with `CCCCC[C@@]12CCN(C)C(Cc3ccc(O)cc31)C2` (mixture of isomers), 1.96.

As to `COc1ccc2c(c1)[C@@]1(C)CCN(CCc3ccccc3)C(C2)[C@@H]1C`, the “log(1/C)” value is reported as 2.66. Regarding `CN1CC[C@]2(C)c3cc(O)ccc3CC1[C@]2(C)O` (mixture of isomers), the “log(1/C)” value is 1.89. The value for `C[C@@]12CCNC(Cc3ccc(O)cc31)[C@H]2O` (mixture of isomers) was 0.88; that for `CCC[C@@]12CCN(C)C(Cc3ccccc31)[C@H]2C` (mixture of isomers) was 1.76. With `CC[C@H]1C2Cc3ccc(O)cc3[C@@]1(CC)CCN2C` (stereo in doubt; 93) the figure was 1.51.

Turning to `CC[C@H]1C2Cc3ccc(OC)cc3[C@@]1(CC)CCN2C` (stereo in doubt; 42), the “log(1/C)” value is given as 1.81. The value for `CC[C@@]12CCN(C)C(Cc3ccc(O)cc31)[C@H]2O` (mixture of isomers) was 1.67; that for `COc1ccc2c(c1)[C@@]1(C)CCN(C)C(C2)[C@@]1(C)O` was 1.48; that for `CN1CC[C@@]2(C)CC1Cc1ccc(O)cc12` (stereo in doubt; 31) was 2.16. As to `CC[C@H]1C2Cc3ccc(O)cc3[C@@]1(CC)CCN2C` (stereo in doubt; 30), the “log(1/C)” value stood at 2.35. The value for `C[C@H]1C2Cc3ccc(Cl)cc3[C@@]1(C)CCN2C` (mixture of isomers) was 0.83; that for `CC(C)=CCN1CC[C@]2(C)c3cc(O)ccc3CC1[C@H]2C` was 1.7. The value for `CC[C@@]12CCN(C)C(Cc3ccc(OC)cc31)[C@@H]2O` (mixture of isomers) was 0.99.

For the compound `CN1CC[C@H]2CC1Cc1ccccc12` (mixture of isomers), the “log(1/C)” value was found to be 1.3. With `CN1CC[C@]2(C)c3cc(O)ccc3CC1[C@@]2(C)O` (mixture of isomers) the figure was 2.15; with `C[C@@H]1C2Cc3ccc(O)cc3[C@@]1(C)CCN2C` (stereo in doubt; 92), 1.6; with `CC(=O)Oc1ccc2c(c1)[C@@]1(C)CCN(C)C(C2)[C@@H]1C` (mixture of isomers), 2.72. The value for `CC(=O)Oc1ccc2c(c1)[C@@]1(C)CCN(C)C(C2)C1` (mixture of isomers) was 1.98; that for `CC(=O)O[C@H]1C2Cc3ccccc3[C@@]1(C)CCN2C` (mixture of isomers) was 1.37.
